Assay results reported in paper PMC12028158, “Synthesis and In Vitro Evaluation of the Anticancer Effect of Novel Phosphonium Vindoline Derivatives” (International Journal of Molecular Sciences, 2025).
Like-named read-outs stand apart in the source and are kept apart here.

Tests used:
Assay type in all cases: cell-based
[1] = system: SNB-19; test: NCI60 five-dose screen; conditions: Homo sapiens, read-out: GI50
[2] = system: SK-MEL-28; test: NCI60 one-dose screen; conditions: Homo sapiens; SK-MEL-28, 10 μM, one-dose; read-out: Growth percent
[3] = system: MCF7; test: NCI60 five-dose screen; conditions: Homo sapiens, read-out: GI50
[4] = system: TK-10; test: NCI60 five-dose screen; conditions: Homo sapiens; TK-10, Renal Cancer, five-dose; read-out: GI50
[5] = system: T-47D; test: NCI60 five-dose screen; conditions: Homo sapiens, T47D; T-47D, Breast Cancer, five-dose; read-out: GI50
[6] = system: OVCAR-5; test: NCI60 five-dose screen; conditions: Homo sapiens; OVCAR-5, Ovarian Cancer, five-dose; read-out: GI50
[7] = system: HCT-116; test: NCI60 one-dose screen; conditions: Homo sapiens; HCT-116, 10 μM, one-dose; read-out: Growth percent
[8] = system: NCI-H322M; test: NCI60 five-dose screen; conditions: Homo sapiens, Non-small Cell Lung Cancer, five-dose, read-out: GI50
[9] = system: TK-10; test: NCI60 one-dose screen; conditions: Homo sapiens; TK-10, 10 μM, one-dose; read-out: Growth percent
[10] = system: RPMI-8226; test: NCI60 one-dose screen; conditions: Homo sapiens; RPMI-8226, 10 μM, one-dose; read-out: Growth percent
[11] = system: LOX IMVI; test: NCI60 five-dose screen; conditions: Homo sapiens, Melanoma, five-dose, read-out: GI50
[12] = system: MDA-MB-468; test: NCI60 one-dose screen; conditions: Homo sapiens; MDA-MB-468, 10 μM, one-dose; read-out: Growth percent
[13] = system: HT29; test: NCI60 one-dose screen; conditions: Homo sapiens, HT-29; HT29, 10 μM, one-dose; read-out: Growth percent
[14] = system: M14; test: NCI60 one-dose screen; conditions: Homo sapiens; M14, 10 μM, one-dose; read-out: Growth percent
[15] = system: CAKI-1; test: NCI60 one-dose screen; conditions: Homo sapiens; CAKI-1, 10 μM, one-dose; read-out: Growth percent
[16] = system: U251; test: NCI60 five-dose screen; conditions: Homo sapiens, read-out: GI50
[17] = system: T-47D; test: NCI60 one-dose screen; conditions: Homo sapiens, T47D; T-47D, 10 μM, one-dose; read-out: Growth percent
[18] = system: NCI-H522; test: NCI60 one-dose screen; conditions: Homo sapiens; NCI-H522, 10 μM, one-dose; read-out: Growth percent
[19] = system: SNB-75; test: NCI60 one-dose screen; conditions: Homo sapiens; SNB-75, 10 μM, one-dose; read-out: Growth percent
[20] = system: ACHN; test: NCI60 five-dose screen; conditions: Homo sapiens, Renal Cancer, five-dose, read-out: GI50
[21] = system: UACC-257; test: NCI60 one-dose screen; conditions: Homo sapiens; UACC-257, 10 μM, one-dose; read-out: Growth percent
[22] = system: HS 578T; test: NCI60 one-dose screen; conditions: Homo sapiens; HS 578T, 10 μM, one-dose; read-out: Growth percent
[23] = system: NCI-H226; test: NCI60 one-dose screen; conditions: Homo sapiens; NCI-H226, 10 μM, one-dose; read-out: Growth percent
[24] = system: Colon Cancer panel; test: NCI60 five-dose screen, panel mean; conditions: Homo sapiens; mean over Colon Cancer panel; read-out: Mean GI50
[25] = system: Ovarian Cancer panel; test: NCI60 five-dose screen, panel mean; conditions: Homo sapiens; mean over Ovarian Cancer panel; read-out: Mean GI50
[26] = system: UO-31; test: NCI60 one-dose screen; conditions: Homo sapiens; UO-31, 10 μM, one-dose; read-out: Growth percent
[27] = system: ACHN; test: NCI60 one-dose screen; conditions: Homo sapiens, 10 μM, one-dose, read-out: Growth percent
[28] = system: HOP-62; test: NCI60 one-dose screen; conditions: Homo sapiens; HOP-62, 10 μM, one-dose; read-out: Growth percent
[29] = system: Non-small Cell Lung Cancer panel; test: NCI60 five-dose screen, panel mean; conditions: Homo sapiens; mean over Non-small Cell Lung Cancer panel; read-out: Mean GI50
[30] = system: A549/ATCC; test: NCI60 five-dose screen; conditions: Homo sapiens; A549/ATCC, Non-small Cell Lung Cancer, five-dose; read-out: GI50
[31] = system: CCRF-CEM; test: NCI60 five-dose screen; conditions: Homo sapiens, Leukemia, five-dose, read-out: GI50
[32] = system: NCI-H460; test: NCI60 five-dose screen; conditions: Homo sapiens; NCI-H460, Non-small Cell Lung Cancer, five-dose; read-out: GI50
[33] = system: UACC-257; test: NCI60 five-dose screen; conditions: Homo sapiens, read-out: GI50
[34] = system: U251; test: NCI60 one-dose screen; conditions: Homo sapiens, U-251; U251, 10 μM, one-dose; read-out: Growth percent
[35] = system: Renal Cancer panel; test: NCI60 five-dose screen, panel mean; conditions: Homo sapiens; mean over Renal Cancer panel; read-out: Mean GI50
[36] = system: KM12; test: NCI60 five-dose screen; conditions: Homo sapiens, read-out: GI50
[37] = system: DU-145; test: NCI60 one-dose screen; conditions: Homo sapiens; DU-145, 10 μM, one-dose; read-out: Growth percent
[38] = system: SW-620; test: NCI60 five-dose screen; conditions: Homo sapiens; SW-620, Colon Cancer, five-dose; read-out: GI50
[39] = system: HOP-62; test: NCI60 five-dose screen; conditions: Homo sapiens; HOP-62, Non-small Cell Lung Cancer, five-dose; read-out: GI50
[40] = system: COLO 205; test: NCI60 one-dose screen; conditions: Homo sapiens; COLO 205, 10 μM, one-dose; read-out: Growth percent
[41] = system: SF-268; test: NCI60 one-dose screen; conditions: Homo sapiens; SF-268, 10 μM, one-dose; read-out: Growth percent
[42] = system: MOLT-4; test: NCI60 five-dose screen; conditions: Homo sapiens; MOLT-4, Leukemia, five-dose; read-out: GI50
[43] = system: MDA-MB-468; test: NCI60 five-dose screen; conditions: Homo sapiens, read-out: GI50
[44] = system: SF-295; test: NCI60 one-dose screen; conditions: Homo sapiens; SF-295, 10 μM, one-dose; read-out: Growth percent
[45] = system: COLO 205; test: NCI60 five-dose screen; conditions: Homo sapiens, read-out: GI50
[46] = SNB-19, SNB-19, CNS Cancer, five-dose
[47] = MCF7, MCF7, Breast Cancer, five-dose
[48] = U-251, U251, CNS Cancer, five-dose
[49] = UACC-257, UACC-257, Melanoma, five-dose
[50] = KM12, KM12, Colon Cancer, five-dose
[51] = MDA-MB-468, MDA-MB-468, Breast Cancer, five-dose
[52] = COLO 205, COLO 205, Colon Cancer, five-dose

## CC[C@]12C=CCN3CC[C@@]4(c5ccc(OC)cc5N(C)[C@H]4[C@@](O)(C(=O)OC)[C@@H]1OC(=O)CCC[P+](c1ccccc1)(c1ccccc1)c1ccccc1)[C@@H]32 [compound 3, reference compound]
[1]; [46]
  GI50: 334 nM
[2]
  activity at 10 µM: 20.9%
[3]; [47]
  GI50: 306 nM
[4]
  GI50: 1480 nM
[5]
  GI50: 192 nM
[6]
  GI50: 1200 nM
[7]
  activity at 10 µM: 8.72%
[8]
  GI50: 2330 nM
[9]
  activity at 10 µM: 22.3%
[10]
  activity at 10 µM: -12.7%
[11]
  GI50: 858 nM
[12]
  activity at 10 µM: -75.6%
[13]
  activity at 10 µM: 2.42%
[14]
  activity at 10 µM: 17.7%
[15]
  activity at 10 µM: 52.2%
[16]; [48]
  GI50: 371 nM
[17]
  activity at 10 µM: 1.08%
[18]
  activity at 10 µM: -35.4%
[19]
  activity at 10 µM: -4.39%
[20]
  GI50: 4530 nM
[21]
  activity at 10 µM: -27.3%
[22]
  activity at 10 µM: 25.5%
[23]
  activity at 10 µM: 14%
[24]
  GI50: 1690 nM
[25]
  GI50: 7780 nM
[26]
  activity at 10 µM: 80%
[27]
  activity at 10 µM: 89.9%
[28]
  activity at 10 µM: 2.56%
[29]
  GI50: 1110 nM
[30]
  GI50: 1350 nM
[31]
  GI50: 487 nM
[32]
  GI50: 1220 nM
[33]; [49]
  GI50: 240 nM
[34]
  activity at 10 µM: 4.03%
[35]
  GI50: 3520 nM
[36]; [50]
  GI50: 297 nM
[37]
  activity at 10 µM: 18%
[38]
  GI50: 1200 nM
[39]
  GI50: 1370 nM
[40]
  activity at 10 µM: -87.9%
[41]
  activity at 10 µM: 19.2%
[42]
  GI50: 614 nM
[43]; [51]
  GI50: 126 nM
[44]
  activity at 10 µM: 23.3%
[45]; [52]
  GI50: 161 nM

## CC[C@]12C=CCN3CC[C@@]4(c5ccc(OC)cc5N(C)[C@H]4[C@@](O)(C(=O)OC)[C@@H]1OC(=O)CCC[P+](c1cc(C)c(OC)c(C)c1)(c1cc(C)c(OC)c(C)c1)c1cc(C)c(OC)c(C)c1)[C@@H]32 [9e]
[1]; SNB-19, CNS cancer SNB-19, text
  GI50: < 100 nM
[1]; [46]
  GI50: 59 nM
[2]
  activity at 10 µM: -98.2%
[3]; [47]
  GI50: 44 nM
[3]; MCF7, breast cancer MCF7, text
  GI50: < 100 nM
[4]
  GI50: 277 nM
[5]
  GI50: 105 nM
[6]
  GI50: 339 nM
[7]
  activity at 10 µM: -93%
[8]
  GI50: 342 nM
[9]
  activity at 10 µM: -99.3%
[10]
  activity at 10 µM: -98.3%
[11]
  GI50: 145 nM
[12]
  activity at 10 µM: -99.4%
[13]
  activity at 10 µM: -97.5%
[14]
  activity at 10 µM: -97.3%
[15]
  activity at 10 µM: -97%
[16]; U-251, CNS cancer U251, text
  GI50: < 100 nM
[16]; [48]
  GI50: 54 nM
[18]
  activity at 10 µM: -98.4%
[19]
  activity at 10 µM: -98.9%
[20]
  GI50: 319 nM
[21]
  activity at 10 µM: -99.3%
[22]
  activity at 10 µM: -98.2%
[23]
  activity at 10 µM: -99.3%
[24]
  GI50: 240 nM
[25]
  GI50: 940 nM
[27]
  activity at 10 µM: -96.5%
[28]
  activity at 10 µM: -97.9%
[29]
  GI50: 230 nM
[30]
  GI50: 275 nM
[31]
  GI50: 114 nM
[32]
  GI50: 229 nM
[33]; [49]
  GI50: 38 nM
[33]; UACC-257, melanoma UACC-257, text
  GI50: < 100 nM
[34]
  activity at 10 µM: -96.5%
[35]
  GI50: 440 nM
[36]; [50]
  GI50: 47 nM
[36]; KM12, colon cancer KM12, text
  GI50: < 100 nM
[37]
  activity at 10 µM: -96.8%
[38]
  GI50: 245 nM
[39]
  GI50: 173 nM
[40]
  activity at 10 µM: -96.6%
[41]
  activity at 10 µM: -97.6%
[42]
  GI50: 164 nM
[43]; [51]
  GI50: 27 nM
[43]; MDA-MB-468, breast cancer MDA-MB-468, text
  GI50: < 100 nM
[44]
  activity at 10 µM: -98.6%
[45]; [52]
  GI50: 91 nM
[45]; COLO 205, colon cancer COLO-205, text
  GI50: < 100 nM
